In article PMC7104388 (Journal of medicinal chemistry, 2019):

Key:
Pf20S β5 [1] = target: T1, Pf20S β5 (Plasmodium falciparum, UniProt A0A5K1K7U1+Q8IJT1)
T1 sequence (Q8IJT1 61-271): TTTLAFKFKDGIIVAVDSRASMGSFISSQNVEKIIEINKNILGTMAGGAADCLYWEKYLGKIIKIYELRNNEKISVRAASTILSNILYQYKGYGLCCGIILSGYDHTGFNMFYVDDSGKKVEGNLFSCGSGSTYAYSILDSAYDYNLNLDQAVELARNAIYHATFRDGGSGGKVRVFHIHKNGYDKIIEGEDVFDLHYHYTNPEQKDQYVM
T1 sequence (A0A5K1K7U1 29-240): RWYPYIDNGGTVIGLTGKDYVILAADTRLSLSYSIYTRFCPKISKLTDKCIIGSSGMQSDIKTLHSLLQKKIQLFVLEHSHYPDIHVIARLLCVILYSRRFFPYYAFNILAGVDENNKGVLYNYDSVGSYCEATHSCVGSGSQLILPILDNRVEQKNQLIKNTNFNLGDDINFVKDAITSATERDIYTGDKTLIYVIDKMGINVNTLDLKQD

PAMPA permeability = format: in vitro ADME; conditions: pH 7.4
[2] = tested on: P. falciparum clinical isolates (Uganda); experiment: Ex vivo 72-h growth inhibition of P. falciparum field isolates in Uganda; format: cell-based; conditions: Plasmodium falciparum, read-out: EC50 range against Ugandan isolates
Pf20S β5 [3] = target: T1, Pf20S β5; experiment: Pf20S active subunit labeling by MV151; format: binding, P. falciparum; conditions: Figure 2B
P. falciparum Dd2 = experiment: Parasite growth inhibition, parental Dd2; conditions: Plasmodium falciparum
i-20S β5i = i-20S β5i (Homo sapiens, UniProt P20618+P28062); experiment: human i-20S β5i enzyme inhibition; format: biochemical
Pf20S β5 [4] = target: T1, Pf20S β5; experiment: biochemical; conditions: IC50 Pf20S β5, Table 3; mean of at least three independent experiments
c-20S β5c = c-20S β5c (Homo sapiens, UniProt P20618+P28074); experiment: human c-20S β5c enzyme inhibition; format: biochemical
[5] = tested on: wild-type Pf Dd2 parasites; experiment: Dual drug assay and isobologram analysis, 72 h; format: cell-based, P. falciparum; conditions: WHZ-04 in combination with WLW-VS
Pf 3D7 = experiment: Parasite growth inhibition, erythrocytic stage, SYBR Green 72 h

COc1cccc(C(=O)NCCNC(=O)[C@H](CC(=O)NC(C)(C)C)NS(=O)(=O)c2ccc(C)cc2)c1 [WHZ-12]
fold enhanced potency relative to WHZ-11 (Pf20S β5 [1]): 2.5 fold
PAMPA @ pH7.4 (PAMPA permeability): 159 nm/sec

Cc1ccc(S(=O)(=O)N[C@@H](CC(=O)NC(C)(C)C)C(=O)NCCNC(=O)c2ccc(F)cc2)cc1 [WHZ-07]
fold reduction in potency relative to WHZ-04 (Pf20S β5 [1]): 6 fold

C#Cc1cccc(C(=O)NCCNC(=O)[C@H](CC(=O)NC(C)(C)C)NS(=O)(=O)c2ccc(C)cc2)c1 [WHZ-13]
EC50 [2]: 4.4 to 16 nM
fold enhanced potency relative to WHZ-11 (Pf20S β5 [1]): 4.8 fold
PAMPA @ pH7.4 (PAMPA permeability): 203 nm/sec
inhibition of labeling of Pf20S β5 by MV151 (Pf20S β5 [3]): only inhibited the labeling of the Pf20S β5

Cc1cc(C(=O)N[C@@H](CC(=O)NC(C)(C)C)C(=O)NCCNC(=O)c2cccc(-n3cccn3)c2)no1 [TDI4258]
EC90 (P. falciparum Dd2): 60 nM

Cc1ccc(S(=O)(=O)N[C@@H](CC(=O)NC(C)(C)C)C(=O)NCCNC(=O)c2c(O)cccc2F)cc1 [WHZ-20]
IC50 (i-20S β5i): 9970 nM
fold of selectivity, β5i over Pf20S β5 (i-20S β5i; in parenthesis in Table 3): 2.5 fold
IC50 (Pf20S β5 [4]): 4060 nM
IC50 (c-20S β5c): > 100000 nM
fold of selectivity, β5c over Pf20S β5 (c-20S β5c; in parenthesis in Table 3): > 24.7 fold

CCN(CC)CCCC(C)Nc1ccnc2cc(Cl)ccc12 (centres unmarked) [chloroquine, reference compound]
EC50 [2]: 4.5 to 27 nM

Cc1ccc(S(=O)(=O)N[C@@H](CC(=O)NC(C)(C)C)C(=O)NCCNC(=O)c2ccccc2)cc1 [WHZ-04]
type of interaction by isobologram analysis [5]: synergistic to additive
∑FIC ([5]; 72-h dual drug assay, three independent experiments): 0.52 ± 0.13
PAMPA @ pH7.4 (PAMPA permeability): 137 nm/sec

Cc1ccc(S(=O)(=O)N[C@@H](CC(=O)NC(C)(C)C)C(=O)NCCNC(=O)c2ccccc2Cl)cc1 [WHZ-08]
fold reduction in potency relative to WHZ-04 (Pf20S β5 [1]): 10 fold

Cc1ccc(S(=O)(=O)N[C@@H](CC(=O)NC(C)(C)C)C(=O)NCCNC(=O)c2ccccc2F)cc1 [WHZ-05]
PAMPA @ pH7.4 (PAMPA permeability): 105 nm/sec
fold decrease in activity against cultured parasites compared to PKS21221 (Pf 3D7): 4.7 fold
